Assay results reported in ChEMBL document CHEMBL1124138, “Synthesis and analgesic activity of pemedolac (cis-1-ethyl-1,3,4,9-tetrahydro-4-(phenylmethyl)pyrano[3,4-b]ind ole-1- acetic acid)” (1988).

Assays:
Type in all cases: functional
[1] = test system: Mus musculus; experiment: Percentage inhibition of writhing in mouse at 25 mg/kg (PBQ writhing test)
[2] = species: Mus musculus; experiment: Dose causing 50% inhibition of writhing in mouse (PBQ writhing test)
[3] = species: Rattus norvegicus; experiment: Dose causing an analgesic effect in 50% of rats (Randall-Selitto assay)
[4] = test system: Rattus norvegicus; experiment: Percentage analgesic effect of rats at 10 mg/kg (Randall-Selitto assay)
[5] = test system: Mus musculus; experiment: Percentage inhibition of writhing in mouse at 30 mg/kg (PBQ writhing test)
[6] = Ratio of acute ulcerogenesis UD50/Randall-Selitto ED50
[7] = Ratio of carrageenan paw edema ED50/Randall-Sellitto ED50
[8] = test system: Rattus norvegicus; experiment: Dose causing 50% inhibition of edema by carrageenan paw edema assay
[9] = species: Rattus norvegicus; experiment: Dose at which 50% of the rats had a positive gastrointestinal irritation / ulceration on a quantal all-or-none basis
[10] = test system: Rattus norvegicus; experiment: Dose causing 50% inhibition of edema by carrageenan paw edema assay.
[11] = species: Rattus norvegicus; experiment: Dose at which 50% of the rats had a positive gastrointestinal irritation / ulceration on a quantal all-or-none basis.
[12] = Rattus norvegicus, read-out: ED50

Question: With `CC[C@@]1(CC(=O)O)OC[C@@H](Cc2ccccc2)c2c1[nH]c1ccccc21` as the compound, how does the inhibition in vivo at 25 mg/kg [1] read?
Answer: The inhibition in vivo at 25 mg/kg was 19%.

Question: For `CCC1(CC(=O)O)OCC(Cc2ccccc2)c2c1[nH]c1ccccc21` (single isomer, unassigned; (+)) [PEMEDOLAC], which ED50 [2] is on record?
Answer: Its ED50 is 1.8 mg/kg.

Question: What about the ED50 [3] of the same compound?
Answer: The ED50 was 0.04 mg/kg.

Question: For `CCC1(CC(=O)O)OCC(Cc2ccccc2)c2c1[nH]c1ccccc21` (single isomer, unassigned; (-)) [PEMEDOLAC], which Effect [4] is on record?
Answer: The Effect was 40%.

Question: What about the inhibition in vivo at 30 mg/kg [5] of the same compound?
Answer: Its inhibition in vivo at 30 mg/kg is 15%.

Question: Which results are given for `CCC1(CC(=O)O)OCC(Cc2ccccc2)c2c1[nH]c1ccccc21` (stereo in doubt)?
Answer: Safety index [6]: > 35000; Ratio [7]: 33000

Question: With `CCC1(CC(=O)O)OCC(Cc2ccccc2)c2c1[nH]c1ccccc21` (stereo in doubt) [PEMEDOLAC] as the compound, how does the ED50 [8] read?
Answer: The ED50 was ~100 mg/kg.

Question: What about the UD50 [9] of the same compound?
Answer: Its UD50 is 107 mg/kg.

Question: And the ED50 ([2]; Mus musculus, read-out: ED50)?
Answer: Its ED50 is 2 mg/kg.

Question: And the ED50 [3]?
Answer: Its ED50 is 0.003 mg/kg.

Question: For `CCc1cccc2c3c([nH]c12)C(CC)(CC(=O)O)OCC3` (stereo not drawn) [ETODOLAC], which ED50 [8] is on record?
Answer: Its ED50 is 23 mg/kg.

Question: And the UD50 [9]?
Answer: Its UD50 is 58 mg/kg.

Question: And the Safety index [6]?
Answer: The Safety index was 13.

Question: And the Ratio [7]?
Answer: The Ratio was 5.1.

Question: What about the ED50 [3, 12] of the same compound?
Answer: Its ED50 is 4.5 mg/kg.

Question: For `CC(C)Cc1ccc(C(C)C(=O)O)cc1` (stereo not drawn) [IBUPROFEN], which ED50 [10] is on record?
Answer: Its ED50 is 21 mg/kg.

Question: What about the UD50 [11] of the same compound?
Answer: Its UD50 is 150 mg/kg.

Question: And the Safety index [6]?
Answer: The Safety index was 2.3.

Question: And the ED50 ([2]; Mus musculus, read-out: ED50)?
Answer: The ED50 was 32.4 mg/kg.

Question: And the Ratio [7]?
Answer: The Ratio was 0.3.

Question: And the ED50 [3, 12]?
Answer: Its ED50 is 64.5 mg/kg.

Question: For `CN1C(C(=O)Nc2ccccn2)=C(O)c2ccccc2S1(=O)=O` [PIROXICAM], which ED50 [10] is on record?
Answer: The ED50 was 1.3 mg/kg.

Question: And the UD50 [11]?
Answer: The UD50 was 6 mg/kg.

Question: And the Safety index [6]?
Answer: Its Safety index is 17.

Question: And the ED50 ([2]; Mus musculus, read-out: ED50)?
Answer: Its ED50 is 3.4 mg/kg.

Question: What about the Ratio [7] of the same compound?
Answer: The Ratio was 3.7.

Question: What about the ED50 [3, 12] of the same compound?
Answer: The ED50 was 0.35 mg/kg.
